Laboratory results from the supplement of paper PMC6045584.
± gives the standard deviation of the averaged measurements.

Tests used:
[1] = compound: CC[C@@H](C(=O)[C@@H](C)[C@@H](O)[C@H](C)[C@@H]1O[C@@H]([C@@H](CC)C(=O)O)CC[C@@H]1C)[C@H]1O[C@]2(C=C[C@@H](O)[C@]3(CC[C@@](C)([C@H]4CC[C@](O)(CC)[C@H](C)O4)O3)O2)[C@H](C)C[C@@H]1C [SALINOMYCIN]; assay: surviving fraction relative to DMSO-only wells; higher = less growth inhibition; conditions: exposure time: 5 days
Summary of the method: (§1)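 Continuous five-day exposure to inhibitors at 0.5, 1, 5, 10, 50, 100, 500 and 1000 nM started 24 hours after log-phase tumour cell lines were seeded at 250–500 cells per well in 384-well plates. Luminescence was read after 10 minutes at room temperature. Viability is given as surviving fraction, meaning CellTiter-Glo luminescence normalised to the median of DMSO-only wells.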

[2] = compound: C=CCNC1=C2C[C@@H](C)C[C@H](OC)[C@H](O)[C@@H](C)/C=C(\C)[C@H](OC(N)=O)[C@@H](OC)/C=C\C=C(/C)C(=O)NC(=CC1=O)C2=O [17-AAG]; assay: as above; conditions: exposure time: 5 days
Summary of the method: as §1

| Test System | surviving fraction ([1]; 0.5 nM) | surviving fraction ([1]; 1 nM) | surviving fraction ([1]; 5 nM) | surviving fraction ([1]; 10 nM) | surviving fraction ([1]; 50 nM) | surviving fraction ([1]; 100 nM) | surviving fraction ([1]; 500 nM) | surviving fraction ([1]; 1000 nM) | surviving fraction ([2]; 0.5 nM) | surviving fraction ([2]; 1 nM) | surviving fraction ([2]; 5 nM) | surviving fraction ([2]; 10 nM) | surviving fraction ([2]; 50 nM) | surviving fraction ([2]; 100 nM) | surviving fraction ([2]; 500 nM) | surviving fraction ([2]; 1000 nM) |
| --- | --- | --- | --- | --- | --- | --- | --- | --- | --- | --- | --- | --- | --- | --- | --- | --- |
| HCC1395 BREAST | 1.06 ± 0.1 | 1.26 ± 0.26 | 1.17 ± 0.11 | 1.05 ± 0.15 | 1.16 ± 0.13 | 1.11 ± 0.041 | 0.843 ± 0.13 | 0.751 ± 0.16 | 0.823 ± 0.02 | 0.862 ± 0.035 | 0.957 ± 0.12 | 0.93 ± 0.067 | 1.21 ± 0.12 | 1.13 ± 0.18 | 0.899 ± 0.15 | 0.803 ± 0.1 |
| HCC1806 BREAST | 0.957 ± 0.25 | 0.695 ± 0.59 | 0.819 ± 0.58 | 0.709 ± 0.61 | 0.965 ± 0.17 | 0.873 ± 0.04 | 0.33 ± 0.056 | 0.223 ± 0.0067 | 0.78 ± 0.076 | 0.783 ± 0.065 | 0.571 ± 0.12 | 0.123 ± 0.056 | 0.0273 ± 0.0015 | 0.0247 ± 0.0015 | 0.023 ± 0.001 | 0.0243 ± 0.0015 |
| HCC1954 BREAST | 0.944 ± 0.29 | 0.82 ± 0.39 | 0.919 ± 0.36 | 1.03 ± 0.088 | 0.953 ± 0.011 | 0.725 ± 0.04 | 0.295 ± 0.0032 | 0.172 ± 0.023 | 0.387 ± 0.00071 | 0.292 ± 0.071 | 0.195 ± 0.011 | 0.131 ± 0.03 | 0.0668 ± 0.012 | 0.0498 ± 0.0053 | 0.0425 ± 0.0042 | 0.045 ± 0.0064 |
| HCT15 LARGE INTESTINE | 0.933 ± 0.022 | 0.843 ± 0.059 | 0.894 ± 0.028 | 0.589 ± 0.016 | 1.03 ± 0.041 | 0.964 ± 0.015 | 0.893 ± 0.032 | 0.442 ± 0.029 | 0.858 ± 0.04 | 0.852 ± 0.011 | 0.864 ± 0.029 | 0.792 ± 0.078 | 0.479 ± 0.0076 | 0.264 ± 0.0079 | 0.072 ± 0.0027 | 0.0573 ± 0.0025 |
| HELA CERVIX | 0.974 ± 0.053 | 0.936 ± 0.068 | 0.97 ± 0.059 | 0.906 ± 0.041 | 1.03 ± 0.06 | 0.885 ± 0.056 | 0.942 ± 0.056 | 0.55 ± 0.045 | 0.944 ± 0.039 | 0.921 ± 0.037 | 0.924 ± 0.045 | 0.906 ± 0.043 | 0.68 ± 0.092 | 0.482 ± 0.038 | 0.219 ± 0.015 | 0.0948 ± 0.0088 |
| HOS BONE | 0.99 ± 0.0076 | 0.969 ± 0.0052 | 0.997 ± 0.023 | 0.966 ± 0.0082 | 1.03 ± 0.012 | 0.858 ± 0.032 | 0.0367 ± 0.0031 | 0.0627 ± 0.019 | 0.924 ± 0.029 | 0.932 ± 0.037 | 0.934 ± 0.027 | 0.93 ± 0.017 | 0.914 ± 0.024 | 0.442 ± 0.11 | 0.0503 ± 0.0011 | 0.0427 ± 0.0032 |
| HOSMNG BONE | 0.987 ± 0.1 | 0.945 ± 0.13 | 1.03 ± 0.086 | 0.985 ± 0.15 | 1.05 ± 0.13 | 0.993 ± 0.18 | 0.909 ± 0.09 | 0.511 ± 0.12 | 0.981 ± 0.039 | 0.977 ± 0.072 | 0.972 ± 0.051 | 0.978 ± 0.068 | 1.08 ± 0.028 | 0.506 ± 0.014 | 0.14 ± 0.014 | 0.11 ± 0.0031 |
| HSSYII SYNOVIAL | 0.892 ± 0.033 | 0.842 ± 0.027 | 0.864 ± 0.043 | 0.582 ± 0.026 | 0.94 ± 0.017 | 0.743 ± 0.033 | 0.0705 ± 0.0015 | 0.0267 ± 0.0019 | 0.869 ± 0.049 | 0.812 ± 0.035 | 0.888 ± 0.045 | 0.868 ± 0.022 | 0.764 ± 0.039 | 0.519 ± 0.017 | 0.122 ± 0.0035 | 0.114 ± 0.0093 |
| HT1080 SOFT TISSUE | 1.03 ± 0.034 | 1.02 ± 0.015 | 1.03 ± 0.024 | 1.05 ± 0.031 | 1.06 ± 0.03 | 1.03 ± 0.089 | 0.78 ± 0.035 | 0.557 ± 0.018 | 0.969 ± 0.031 | 1 ± 0.061 | 1.08 ± 0.015 | 1.048 ± 0.01 | 0.389 ± 0.017 | 0.204 ± 0.028 | 0.148 ± 0.0085 | 0.146 ± 0.0015 |
| HU09 BONE | 1.06 ± 0.035 | 1.01 ± 0.019 | 1.12 ± 0.14 | 1.03 ± 0.091 | 1.04 ± 0.12 | 0.897 ± 0.077 | 0.476 ± 0.036 | 0.271 ± 0.0068 | 0.918 ± 0.045 | 0.935 ± 0.14 | 0.542 ± 0.025 | 0.131 ± 0.038 | 0.0283 ± 0.00058 | 0.0237 ± 0.0031 | 0.0233 ± 0.0029 | 0.0233 ± 0.0038 |
| HUO3N1 BONE | 1.01 ± 0.052 | 0.984 ± 0.073 | 1.01 ± 0.04 | 1.02 ± 0.071 | 0.844 ± 0.012 | 0.51 ± 0.023 | 0.167 ± 0.0067 | 0.151 ± 0.0097 | 0.881 ± 0.025 | 0.888 ± 0.042 | 0.97 ± 0.022 | 0.872 ± 0.046 | 0.591 ± 0.046 | 0.443 ± 0.025 | 0.359 ± 0.026 | 0.316 ± 0.036 |
| JIMT1 BREAST | 0.96 ± 0.014 | 0.977 ± 0.021 | 0.979 ± 0.021 | 0.999 ± 0.021 | 0.988 ± 0.033 | 0.95 ± 0.013 | 0.51 ± 0.024 | 0.356 ± 0.02 | 0.833 ± 0.034 | 0.823 ± 0.062 | 0.84 ± 0.046 | 0.754 ± 0.1 | 0.0973 ± 0.016 | 0.0685 ± 0.0066 | 0.062 ± 0.0026 | 0.0647 ± 0.0033 |
| JURKAT HAEMATOPOIETIC AND LYMPHOID TISSUE | 1.08 ± 0.011 | 1.09 ± 0.028 | 1.03 ± 0.02 | 1.04 ± 0.042 | 0.815 ± 0.024 | 0.673 ± 0.018 | 0.23 ± 0.005 | 0.101 ± 0.0053 | 1.02 ± 0.014 | 0.997 ± 0.037 | 1 ± 0.023 | 0.998 ± 0.014 | 0.951 ± 0.032 | 0.886 ± 0.021 | 0.132 ± 0.0082 | 0.0577 ± 0.0015 |
| KPD BONE | 0.931 ± 0.046 | 0.942 ± 0.013 | 1 ± 0.064 | 0.979 ± 0.018 | 0.93 ± 0.032 | 0.7467 ± 0.005 | 0.235 ± 0.015 | 0.128 ± 0.016 | 0.907 ± 0.085 | 0.894 ± 0.05 | 0.913 ± 0.01 | 0.828 ± 0.084 | 0.246 ± 0.018 | 0.111 ± 0.011 | 0.0627 ± 0.0015 | 0.0607 ± 0.0045 |
| LM7 BONE | 1.01 ± 0.021 | 1.01 ± 0.068 | 1.06 ± 0.041 | 1.11 ± 0.065 | 1.05 ± 0.053 | 1.09 ± 0.051 | 0.588 ± 0.04 | 0.397 ± 0.02 | 0.755 ± 0.098 | 0.728 ± 0.03 | 0.763 ± 0.026 | 0.722 ± 0.01 | 0.188 ± 0.0075 | 0.121 ± 0.0085 | 0.0937 ± 0.0021 | 0.0923 ± 0.0068 |
| LNCAP PROSTATE | 0.833 ± 0.096 | 0.884 ± 0.07 | 0.818 ± 0.18 | 0.815 ± 0.11 | 0.643 ± 0.01 | 0.215 ± 0.013 | 0.0563 ± 0.005 | 0.0493 ± 0.0031 | 1.15 ± 0.1 | 1.14 ± 0.025 | 0.769 ± 0.12 | 0.359 ± 0.028 | 0.114 ± 0.009 | 0.0687 ± 0.012 | 0.0517 ± 0.0021 | 0.0523 ± 0.0064 |
| MCF7 BREAST | 0.853 ± 0.048 | 0.8602 ± 0.005 | 0.821 ± 0.025 | 0.815 ± 0.034 | 0.941 ± 0.02 | 0.908 ± 0.055 | 0.677 ± 0.014 | 0.348 ± 0.028 | 0.842 ± 0.015 | 0.817 ± 0.027 | 0.811 ± 0.021 | 0.777 ± 0.058 | 0.429 ± 0.0029 | 0.329 ± 0.0083 | 0.271 ± 0.015 | 0.275 ± 0.012 |
| MDAMB134 BREAST | 1.05 ± 0.26 | 1.01 ± 0.22 | 0.995 ± 0.0042 | 1.08 ± 0.015 | 1.02 ± 0.069 | 1.05 ± 0.021 | 1.32 ± 0.041 | 1.04 ± 0.037 | 0.609 ± 0.036 | 0.648 ± 0.053 | 0.573 ± 0.066 | 0.667 ± 0.051 | 0.574 ± 0.018 | 0.519 ± 0.011 | 0.524 ± 0.012 | 0.47 ± 0.018 |
| MDAMB157 BREAST | 0.881 ± 0.017 | 0.904 ± 0.042 | 0.985 ± 0.073 | 0.99 ± 0.044 | 0.982 ± 0.078 | 0.819 ± 0.054 | 0.217 ± 0.043 | 0.139 ± 0.011 | 0.897 ± 0.082 | 0.854 ± 0.053 | 0.848 ± 0.18 | 0.482 ± 0.098 | 0.233 ± 0.018 | 0.214 ± 0.038 | 0.163 ± 0.024 | 0.147 ± 0.008 |
| MDAMB231 BREAST | 0.9877 ± 0.006 | 0.9962 ± 0.0061 | 0.993 ± 0.011 | 0.983 ± 0.018 | 1 ± 0.057 | 0.953 ± 0.016 | 0.559 ± 0.011 | 0.425 ± 0.0083 | 0.95 ± 0.019 | 0.943 ± 0.03 | 0.994 ± 0.033 | 1.01 ± 0.022 | 0.534 ± 0.019 | 0.263 ± 0.0075 | 0.103 ± 0.0031 | 0.0973 ± 0.0038 |
